Source: PMC12638251, “Uridine-sensitized screening identifies demethoxy-coenzyme Q and NUDT5 as regulators of nucleotide synthesis” (Nature Metabolism, 2025)

Molecular target: T1, PPAT (amidophosphoribosyltransferase) (Homo sapiens, UniProt Q06203)
T1 construct: with NUDT5
Test: native PAGE of K562 lysate with PRPP dose curve (loss of NUDT5-PPAT oligomer); co-immunoprecipitation with […] PRPP
Format: biochemical

T1 sequence (Q06203 12-517): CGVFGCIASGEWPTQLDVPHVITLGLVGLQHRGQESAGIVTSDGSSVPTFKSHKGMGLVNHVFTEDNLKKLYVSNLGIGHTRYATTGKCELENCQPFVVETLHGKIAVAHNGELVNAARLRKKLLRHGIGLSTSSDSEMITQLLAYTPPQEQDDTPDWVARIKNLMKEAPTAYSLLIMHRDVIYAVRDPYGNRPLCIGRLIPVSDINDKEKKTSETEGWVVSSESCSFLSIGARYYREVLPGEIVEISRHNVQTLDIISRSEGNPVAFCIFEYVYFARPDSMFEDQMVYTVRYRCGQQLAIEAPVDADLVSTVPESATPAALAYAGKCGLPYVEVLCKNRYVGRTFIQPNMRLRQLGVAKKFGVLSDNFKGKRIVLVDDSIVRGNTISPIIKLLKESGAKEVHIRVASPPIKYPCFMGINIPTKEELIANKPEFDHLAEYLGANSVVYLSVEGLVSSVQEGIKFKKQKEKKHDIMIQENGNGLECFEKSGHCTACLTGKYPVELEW
T1 sequence (O95848 whole entry partner): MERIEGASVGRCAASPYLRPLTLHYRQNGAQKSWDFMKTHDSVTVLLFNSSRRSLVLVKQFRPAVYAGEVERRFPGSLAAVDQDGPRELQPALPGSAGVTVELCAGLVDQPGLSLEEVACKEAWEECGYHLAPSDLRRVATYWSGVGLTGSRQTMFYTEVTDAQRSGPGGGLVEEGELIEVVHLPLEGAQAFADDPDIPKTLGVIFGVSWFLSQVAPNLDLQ

## O=P(O)(O)OC[C@H]1OC(OP(=O)(O)OP(=O)(O)O)[C@H](O)[C@@H]1O (stereo partly shown) [PRPP, phosphoribosyl pyrophosphate]
  IC50: 100 µM
